Measured values published in US7285543B2, “Purine inhibitors of fructose-1,6-bisphosphatase” (Metabasis Therapeutics, Inc., priority 1997, dated 2007).
Values belong to the molecule of their own block, whether it stands above or below them.

Experiments:
human liver FBPase = molecular target: T1, human liver FBPase (Homo sapiens, UniProt P09467); test: Inhibition of human liver FBPase (coupled spectrophotometric assay); assay type: biochemical
T1 construct: made in house; host or cells: E. coli BL21
T1 sequence (P09467 2-338 limits assumed): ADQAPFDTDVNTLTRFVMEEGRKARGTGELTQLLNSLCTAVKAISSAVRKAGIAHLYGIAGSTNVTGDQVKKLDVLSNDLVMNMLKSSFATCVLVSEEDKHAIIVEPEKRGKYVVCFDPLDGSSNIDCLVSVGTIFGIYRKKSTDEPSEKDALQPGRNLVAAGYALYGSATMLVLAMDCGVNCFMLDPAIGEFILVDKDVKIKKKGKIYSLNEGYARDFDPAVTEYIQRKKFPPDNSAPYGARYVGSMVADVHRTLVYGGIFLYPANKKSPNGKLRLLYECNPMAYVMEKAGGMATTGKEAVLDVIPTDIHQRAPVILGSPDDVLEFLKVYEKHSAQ

rat liver FBPase = molecular target: T2, rat liver FBPase (Rattus norvegicus, UniProt P19112); test: In vitro inhibition of rat liver FBPase; assay type: biochemical
T2 construct: made in house; host or cells: E. coli BL21
T2 sequence (P19112 2-363 limits assumed): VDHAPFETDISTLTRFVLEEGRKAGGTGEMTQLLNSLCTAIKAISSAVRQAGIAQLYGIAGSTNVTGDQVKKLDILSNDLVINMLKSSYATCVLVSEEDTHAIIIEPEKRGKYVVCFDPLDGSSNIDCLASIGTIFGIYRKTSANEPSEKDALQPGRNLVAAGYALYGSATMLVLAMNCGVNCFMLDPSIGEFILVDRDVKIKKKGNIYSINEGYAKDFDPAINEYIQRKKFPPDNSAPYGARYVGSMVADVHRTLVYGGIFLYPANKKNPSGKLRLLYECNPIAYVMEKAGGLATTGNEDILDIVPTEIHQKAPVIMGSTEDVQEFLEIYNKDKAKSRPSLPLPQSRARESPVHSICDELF
Experimental: (§1) Mouse liver FBPase was obtained by homogenizing freshly isolated mouse liver in 100 mM Tris-HCl buffer, pH 7.4, containing 1 mM EGTA, and 10% glycerol. […] This fraction was redissolved in the homogenization buffer and desalted on a PD-10 gel filtration column (Biorad) eluted with same. This partially purified fraction was used for enzyme assays. Both rat liver and mouse liver FBPase were assayed as described for human liver FBPase.

mouse liver FBPase = molecular target: T3, mouse liver FBPase (Mus musculus, UniProt Q9QXD6); test: In vitro inhibition of mouse liver FBPase; assay type: biochemical
T3 construct: This partially purified fraction was used for enzyme assays; from tissue; host or cells: mouse liver
T3 sequence (Q9QXD6 2-338 limits assumed): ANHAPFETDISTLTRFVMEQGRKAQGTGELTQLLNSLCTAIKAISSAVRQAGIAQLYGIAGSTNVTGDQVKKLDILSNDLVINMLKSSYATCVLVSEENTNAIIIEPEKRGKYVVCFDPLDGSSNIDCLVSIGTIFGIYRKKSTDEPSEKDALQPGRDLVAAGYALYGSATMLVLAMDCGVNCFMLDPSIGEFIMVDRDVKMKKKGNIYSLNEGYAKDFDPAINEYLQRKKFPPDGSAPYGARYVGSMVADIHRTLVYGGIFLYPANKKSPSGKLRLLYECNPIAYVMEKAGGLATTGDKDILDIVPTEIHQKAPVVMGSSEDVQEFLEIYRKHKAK
Experimental: as §1

Human adenosine kinase = molecular target: T4, Human adenosine kinase (Homo sapiens, UniProt P55263); test: AMP site/enzyme selectivity: adenosine kinase; assay type: biochemical; settings: selectivity table; read-out: Adenosine Kinase (inh.)
T4 construct: made in house; host or cells: E. coli
T4 sequence (P55263 1-345 isoform P55263-2): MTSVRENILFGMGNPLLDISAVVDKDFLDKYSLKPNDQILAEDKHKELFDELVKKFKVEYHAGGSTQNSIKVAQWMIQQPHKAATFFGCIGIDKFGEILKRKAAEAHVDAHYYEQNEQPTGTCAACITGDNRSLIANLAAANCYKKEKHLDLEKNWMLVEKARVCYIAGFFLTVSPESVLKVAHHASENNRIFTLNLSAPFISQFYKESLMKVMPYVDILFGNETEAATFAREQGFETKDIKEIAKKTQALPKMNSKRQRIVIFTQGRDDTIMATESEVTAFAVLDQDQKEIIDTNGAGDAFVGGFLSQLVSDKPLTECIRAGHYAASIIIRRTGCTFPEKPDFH

[1] = molecular target: T5, Adenylate Kinase (rabbit muscle) (Oryctolagus cuniculus, UniProt P00569); test: AMP site/enzyme selectivity: adenylate kinase; assay type: biochemical; settings: selectivity table; read-out: Adenylate Kinase (inh.)
T5 construct: purchased Sigma
T5 sequence (P00569 1-194): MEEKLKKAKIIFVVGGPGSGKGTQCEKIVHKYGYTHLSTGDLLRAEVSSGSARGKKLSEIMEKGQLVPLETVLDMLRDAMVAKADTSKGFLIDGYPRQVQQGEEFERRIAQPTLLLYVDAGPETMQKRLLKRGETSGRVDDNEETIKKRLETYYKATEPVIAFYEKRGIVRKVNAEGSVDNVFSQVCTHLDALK

rat hepatocytes [2] = test: Inhibition of gluconeogenesis (glucose production from lactate/pyruvate) in rat hepatocytes; assay type: cell-based; settings: for IC50: from lactate/pyruvate, isolated rat hepatocytes
Experimental: Hepatocytes were prepared from overnight fasted Sprague-Dawley rats (250-300 g) according to the procedure of Berry and Friend (Berry, M. N., Friend, D. S., J. Cell. Biol. 1969, 43, 506-520) as modified by Groen (Groen, […]., Eur. J. Biochem. 1982, 122, 87-93). […] Incubations were carried out in a 95% oxygen, 5% carbon dioxide atmosphere in closed, 50-mL Falcon tubes submerged in a rapidly shaking water bath (37° C.). After 1 hour, an aliquot (0.25 mL) was removed, transferred to an Eppendorf tube and centrifuged. 50 μl of supernatant was then assayed for glucose content using a Sigma Glucose Oxidase kit as per the manufacturer's instructions.

[3] = molecular target: T6, Glycogen Phosphorylase (rabbit muscle) (Oryctolagus cuniculus, UniProt P00489); test: AMP site/enzyme selectivity: glycogen phosphorylase
T6 sequence (P00489 2-843 limits assumed): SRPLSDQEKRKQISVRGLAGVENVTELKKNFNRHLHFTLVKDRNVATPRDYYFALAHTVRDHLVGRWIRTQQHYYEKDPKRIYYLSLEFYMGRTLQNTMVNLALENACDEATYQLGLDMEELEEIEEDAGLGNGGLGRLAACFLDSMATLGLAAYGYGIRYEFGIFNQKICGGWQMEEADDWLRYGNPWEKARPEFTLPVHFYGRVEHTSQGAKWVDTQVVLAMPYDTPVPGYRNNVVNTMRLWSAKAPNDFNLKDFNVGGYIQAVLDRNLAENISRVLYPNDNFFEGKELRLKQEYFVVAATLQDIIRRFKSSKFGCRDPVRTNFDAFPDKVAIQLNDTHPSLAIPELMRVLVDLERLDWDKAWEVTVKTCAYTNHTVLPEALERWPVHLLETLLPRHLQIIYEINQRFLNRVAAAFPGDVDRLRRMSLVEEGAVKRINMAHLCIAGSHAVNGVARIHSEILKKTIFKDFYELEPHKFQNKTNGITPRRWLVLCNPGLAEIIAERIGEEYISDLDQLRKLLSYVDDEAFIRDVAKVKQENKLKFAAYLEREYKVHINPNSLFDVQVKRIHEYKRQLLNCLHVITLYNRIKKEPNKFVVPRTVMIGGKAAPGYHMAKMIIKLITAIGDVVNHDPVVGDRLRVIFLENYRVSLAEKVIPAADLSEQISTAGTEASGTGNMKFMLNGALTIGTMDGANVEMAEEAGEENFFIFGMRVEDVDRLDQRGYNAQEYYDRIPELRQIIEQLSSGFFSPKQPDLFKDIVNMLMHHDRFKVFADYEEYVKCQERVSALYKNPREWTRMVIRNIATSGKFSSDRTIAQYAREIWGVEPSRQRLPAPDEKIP
Experimental: To determine the selectivity of compounds towards FBPase, effects of FBPase inhibitors on 5 key AMP binding enzymes were measured using the assays described below: • Adenosine Kinase: Human adenosine kinase was purified from an E. coli expression system as described by Spychala et al. (Spychala, J., Datta, N. S., Takabayashi, K., Datta, M., Fox, I. H., Gribbin, T., and Mitchell, B. S. Proc. Natl. Acad. Sci. USA 1996, 93, 1232-1237). Activity was measured essentially as described by Yamada et al. (Yamada, Y., Goto, H., Ogasawara, N. Biochim. Biophys. Acta 1988, 660, 36-43.) with a few minor modifications. Assay mixtures contained 50 mM TRIS-maleate buffer, pH 7.0, 0.1% BSA, 1 mM ATP 1 mM MgCl2, 1.0 μM [U-^14C] adenosine (400-600 mCi/mmol) and varying duplicate concentrations of inhibitor. ^14C-AMP was separated from unreacted ^14C-adenosine by absorption to anion exchange paper (Whatman) and quantified by scintillation counting. • Adenosine Monophosphate Deaminase: Porcine heart AMPDA was purified essentially as described by Smiley et al. (Smiley, K. L., Jr, Berry, A. J., and Suelter, C. H. J. Biol. Chem. 1967, 242, 2502-2506) through the phosphocellulose step. Inhibition of AMPDA activity was determined at 37° C. in a 0.1 mL assay mixture containing inhibitor, ˜0.005U AMPDA, 0.1% bovine serum albumin, 10 mM ATP, 250 mM KCl, and 50 mM MOPS at pH 6.5. […]

rat hepatocytes [4] = test: Gluconeogenesis from dihydroxyacetone in rat hepatocytes: glucose production and fructose 1,6-bisphosphate accumulation; assay type: cell-based
Experimental: Isolated rat hepatocytes were prepared as described in Example D and incubated under the identical conditions described except that lactate/pyruvate was replaced by 10 mM dihydroxyacetone, a substrate which feeds into the gluconeogenic pathway at a step just prior to FBPase. Reactions were terminated by removing an aliquot (250 μL) of cell suspension and spinning it through a layer of oil (0.8 mL silicone/mineral oil, 4/1) into a 10% perchloric acid layer (100 μL). […] After thorough mixing and centrifugation, the supernatant was analyzed for glucose content as described in Example D, and also for fructose-1,6-bisphosphate. Fructose-1,6-bisphosphate was assayed spectrophotometrically by coupling its enzymatic conversion to glycerol 3-phosphate to the oxidation of NADH, which was monitored at 340 nm. Reaction mixtures (1 mL) consisted of 200 mM Tris-HCl, pH 7.4, 0.3 mM NADH, 2 units/mL glycerol 3-phosphate dehydrogenase, 2 units/mL triosephosphate isomerase, and 50-100 μl cell extract. After a 30 minute preincubation at 37° C., 1 unit/mL of aldolase was added and the change in absorbance measured until a stable value was obtained. 2 moles of NADH are oxidized in this reaction per mole of fructose-1,6-bisphosphate present in the cell extract.

[5] = tested on: 18 hours fasted Sprague-Dawley rats; test: Blood glucose and liver fructose-1,6-bisphosphate accumulation in fasted rats; assay type: in vivo, rat; settings: 20 mgs/kg intraperitoneally
[6] = Analysis of drug levels in plasma and liver of rats; assay type: in vivo, rat; settings: 20 mgs/kg intraperitoneally, one hour post injection
[7] = tested on: Zucker Diabetic Fatty rats; test: Blood glucose lowering in Zucker Diabetic Fatty rats; assay type: in vivo, rat; settings: 50 mg/kg intraperitoneal, 2 hours post dose, 24-hour fasted
Experimental: Zucker Diabetic Fatty rats purchased at 7 weeks of age were used at age 16 weeks in the 24-hour fasted state. The rats were purchased from Genetics Models Inc. and fed the recommended Purina 5008 diet (6.5% fat). Their fasting hyperglycemia at 24 hours ranged from 150 mg/dL to 310 mg/dL blood glucose.
The stock solution was made up at […] in deionized water and adjusted to neutrality by dropwise, addition of 5 N NaOH. 5 control animals were dosed with saline. Blood glucose was measured at the time of dosing and 2 hours post dose as described in Example F.

[8] = tested on: Zucker Diabetic Fatty rats; test: Inhibition of gluconeogenesis (14C-bicarbonate incorporation into glucose) in Zucker Diabetic Fatty rats; assay type: in vivo, rat; settings: 50 mg/kg intraperitoneal
Experimental: Blood samples (0.6 mL) were obtained by cardiac puncture 10 and 20 minutes post tracer injection. Blood (0.5 mL) was diluted into 6 mL deionized water and protein precipitated by addition of 1 mL zinc sulfate (0.3 N) and 1 mL barium hydroxide (0.3 N). The mixture was centrifuged (20 minutes, 1000×g) and 5 mL of the resulting supernatant was then combined with 1 g of a mixed bed ion exchange resin (1 part AG 50W-X8, 100-200 mesh, hydrogen form and 2 parts of AG 1-X8, 100-200 mesh, acetate form) to separate ^14C-bicarbonate from ^14C-glucose. The slurry was shaken at room temperature for four hours and then allowed to settle. An aliquot of the supernatant (0.5 mL) was then counted in 5 mL scintillation cocktail.

[9] = Estimation of the oral bioavailability of prodrugs of phosphonic acids (urinary recovery); assay type: in vivo, rat
Experimental: Prodrugs were dissolved in 10% ethanol/90% polyethylene glycol (mw 400) and administered by oral gavage at doses of approximately 20 or 40 mg/kg parent compound equivalents to 6-hour fasted, Sprague Dawley rats (220-240 g). The rats were subsequently placed in metabolic cages and urine was collected for 24 hours. The quantity of parent compound excreted into urine was determined by HPLC analysis. An ODS column eluted with a gradient from potassium phosphate buffer, pH 5.5 to acetonitrile was employed for these measurements. Detection was at 310-325 nm. […] Parent compounds were typically dissolved in dimethyl sulfoxide, and administered via the tail vein in animals that were briefly anesthetized with halothane.

[10] = tested on: 18 hours fasted Sprague Dawley rats; test: Blood glucose lowering in fasted rats; assay type: in vivo, rat; settings: 35, 45, and 60 mg/kg intraperitoneally, result in words
Experimental: The vehicle used for drug administration was dimethylsulfoxide. Blood samples were obtained from the tail vein of conscious animals just prior to injection and then at half-hourly intervals. Blood glucose was measured using a HemoCue Inc. glucose analyzer according to the instructions of the manufacturer.

rat hepatocytes [11] = settings: 10 μM prodrug, within 10 minutes
Experimental: Rat hepatocytes were prepared and incubated as in Example D, except that the test compound, 16.4, was added to yield a final concentration of 10 μM. Aliquots of the cell suspension were taken at 0, 5, 10, 20, 30, 45, and 60 minutes after drug exposure.

IC50 (human liver FBPase): 5 µM | IC50 (rat liver FBPase): 100 µM | IC50 (mouse liver FBPase): > 20 µM | IC50 (Human adenosine kinase): > 10 µM | IC50 [1]: > 500 µM | EC50 [3]: > 250 µM
Structure (SMILES): Nc1ncnc2c1nc(-c1ccc(P(=O)(O)O)o1)n2CCc1ccccc1 [Compound 2.1, N^9-(2-phenethyl)-8-(2-(5-phosphono)furanyl)adenine]
IC50 (rat hepatocytes [2]; Hepatocyte): 90 µM

IC50 [1]: > 500 µM | drug level in liver [6]: 51.3 ± 10 nmol/g | concentration at 1 h ([6]; Sprague-Dawley, rat, plasma, ip, 20 mg/kg, read-out: drug level in plasma): 38.5 ± 7 µM | intravenous dose recovered in urine ([9]; intravenous, approximately 10 mg/kg, 24 hours urine): 76.8%
Structure (SMILES): CC(C)(C)Cn1c(-c2ccc(P(=O)(O)O)o2)nc2c(N)ncnc21 [Compound 2.7, N^9-neopentyl-8-(2-(5-phosphono)furanyl)adenine]
IC50 (rat hepatocytes [2]; Hepatocyte): 4.5 µM | IC50 (rat hepatocytes [4]; Hepatocyte, 10 mM dihydroxyacetone, rat hepatocytes): ~5 µM | accumulation of fructose-1,6-bisphosphate in hepatocytes (FIG. 4B) (rat hepatocytes [4]; dihydroxyacetone, result in words): dose-dependent accumulation of fructose-1,6-bisphosphate | elevation of fructose-1,6-bisphosphate levels in liver ([5]; one hour post injection): 10 fold | blood glucose after treatment ([5]; within one hour, lowered from 82±3): 28 ± 9.9 mg/dL | blood glucose lowered, average [7]: ~20% | reduction of incorporation of 14C-bicarbonate into glucose [8]: 75%

Structure (SMILES): CC(C)C(=O)OCOP(=O)(OCOC(=O)C(C)C)c1ccc(-c2nc3c(N)ncnc3n2CC(C)(C)C)o1 [Compound 16.4, 6-Amino-9-neopentyl-8-(2-(5-diisobutyrylmethylphosphono)furanyl)-purine]
IC50 (rat hepatocytes [2]): 3 µM | glucose production in rat hepatocytes (FIG. 11B) (rat hepatocytes [2]; result in words): inhibited glucose production | blood glucose lowering (FIG. 6) [10]: profound glucose lowering | intracellular concentration of compound 2.7 (rat hepatocytes [11]): approximately 80 nmoles/g | oral dose recovered in urine (as parent compound) ([9]; oral, approximately 20 mg/kg, 24 hours urine): 6.2% | oral bioavailability ([9]; rat, estimated from urinary recovery vs intravenous parent): approximately 8%
